We go through eight molecules from patent US12583826B2, “[(1,5-diphenyl-1H-1,2,4-triazol-3-yl)oxy]acetic acid derivatives and salts thereof, crop protection compositions comprising them, methods for producing them and use thereof as safeners” (Bayer Aktiengesellschaft, priority 2019, dated 2026).

Assay [1] deals with summer wheat (TRZAS; cv. Triso). Briefly: Absolute action: reduction of damage by mesosulfuron-methyl on summer wheat, greenhouse post-emergence. The format is in vivo. Particulars: for Absolute reduction in herbicide damage (damage without safener minus damage with safener): mesosulfuron-methyl 20 g/ha; for Herbicide damage with compound of the formula (I): then mesosulfuron-methyl 20 g/ha, visual 0-100% scale, 14-21 days after application. As to the method:
(§1) 2.1 Absolute Action of Selected Compounds of the Invention Using the Example of Reduction of Damage by Mesosulfuron-Methyl on Summer Wheat (TRZAS) The seeds of the crop plants to be treated are laid out in sandy loam in wood fiber or plastic pots (diameter ˜4 cm), covered with soil and grow in a greenhouse under good conditions for germination and growth. The trial plants were treated at the early leaf stage (BBCH10—BBCH12). In the course of this, the inventive compounds of the general formula (I) formulated in the form of wettable powders (WP) were sprayed onto the above-ground parts of the plants as an aqueous suspension with a water application rate corresponding to 800 l/ha with addition of wetting agent (e.g. 0.2% agrotin) in the specified dose. This was followed by the application of the herbicide. For this purpose, mesosulfuron-methyl, formulated in the form of water-dispersible granules (WG), was sprayed onto the above-ground parts of the plants in the form of an aqueous dispersion with a water application rate corresponding to 800 l/ha with addition of wetting agent (e.g. 0.2% agrotin) in a dose of 20 g/ha. The dose of the herbicide was chosen here such that it causes visually apparent damage (min. 30%, max. 75%) compared to untreated crop plants at the evaluation time on a control group of crop plants without safener treatment that were included in the same trial. After application, the plants were cultivated under good growth conditions in a greenhouse. The damage was visually assessed 14-21 days after application. The damage effect was assessed visually on a scale of 0-100% by comparison with untreated control plants, and averaged over 2-3 repeats per treatment. Examples: • 0%=no noticeable effect compared to the untreated plant • 20%=the treated plant population has 20% damage compared to the untreated control population (e.g. growth height, leaf damage, etc.) • 100%=treated plants completely damaged/killed.

Assay [2] deals with summer barley (HORVS; cv. Montoya). Put plainly: Absolute action: reduction of damage by mesosulfuron-methyl on summer barley, greenhouse post-emergence. The format is in vivo. As to conditions: for Absolute reduction in damage (difference): mesosulfuron-methyl 20 g/ha, damage without minus with safener; for Herbicide damage with compound of the formula (I) (%): then mesosulfuron-methyl 20 g/ha, visual 0-100% scale, 14-21 days after application. As to the method: as §1, with “2.2 Absolute Action” for “2.1 Absolute Action”, “on Summer Barley (HORVS) The seeds” for “on Summer Wheat (TRZAS) The seeds”, “treated are aid out in” for “treated are laid out in”, “soil and grown in a” for “soil and grow in a”, “leaf stage (BBCE10-BBCH12). In the” for “leaf stage (BBCH10—BBCH12). In the”, “control population (e.g.: growth height,” for “control population (e.g. growth height,”

With `COC(=O)COc1nc(-c2ccc(Cl)cc2F)n(-c2ccc(Cl)cc2F)n1` [I.46-49], in assay [1] (safener 125 g a.i./ha), the “Absolute reduction in herbicide damage (damage without safener minus damage with safener)” value amounted to 43% and the “Herbicide damage with compound of the formula (I)” value came out at 10%. Moreover, in assay [2] (safener 125 g a.i./ha), the “Absolute reduction in damage (difference)” value was 40% and the “Herbicide damage with compound of the formula (I) (%)” value (“Herbicide damage with compound … (%)” below) is recorded as 20%. Further, in assay [2] (safener 500 g a.i./ha), the “Absolute reduction in damage (difference)” value turned out to be 43% and the “Herbicide damage with compound … (%)” value is 17%.

Turning to `CCOC(=O)COc1nc(-c2ccc(Cl)cc2F)n(-c2ccc(Cl)cc2Cl)n1` [I.47-32], in assay [1] (safener 125 g a.i./ha), the “Absolute reduction in herbicide damage (damage without safener minus damage with safener)” value came to 34% and the “Herbicide damage with compound of the formula (I)” value was determined as 23%. Further, in assay [1] (safener 500 g a.i./ha), the “Absolute reduction in herbicide damage (damage without safener minus damage with safener)” value was determined as 44% and the “Herbicide damage with compound of the formula (I)” value worked out at 13%. In assay [2] (safener 500 g a.i./ha), the “Absolute reduction in damage (difference)” value amounted to 47% and the “Herbicide damage with compound … (%)” value is on record as 10%.

With `CCOC(=O)COc1nc(-c2ccc(Cl)cc2F)n(-c2ccc(F)cc2F)n1` [I.47-38], in assay [1] (safener 125 g a.i./ha), the “Absolute reduction in herbicide damage (damage without safener minus damage with safener)” value was determined as 27% and the “Herbicide damage with compound of the formula (I)” value was found to be 13%. Further, in assay [2] (safener 125 g a.i./ha), the “Absolute reduction in damage (difference)” value was 40% and the “Herbicide damage with compound … (%)” value worked out at 17%. In addition, in assay [2] (safener 500 g a.i./ha), the “Absolute reduction in damage (difference)” value is recorded as 47% and the “Herbicide damage with compound … (%)” value was 10%.

For `CCOC(=O)COc1nc(-c2ccc(Cl)cc2F)n(-c2ccc(Cl)cc2F)n1` [I.47-49], in assay [1] (safener 125 g a.i./ha), the “Absolute reduction in herbicide damage (damage without safener minus damage with safener)” value came out at 30% and the “Herbicide damage with compound of the formula (I)” value is listed as 30%. For the same molecule, in assay [2] (safener 125 g a.i./ha), the “Absolute reduction in damage (difference)” value was determined as 50% and the “Herbicide damage with compound … (%)” value came out at 10%.

Consider `O=C(O)COc1nc(-c2ccc(Cl)cc2F)n(-c2ccccc2F)n1` [I.48-2], for which, in assay [1] (safener 125 g a.i./ha), the “Absolute reduction in herbicide damage (damage without safener minus damage with safener)” value is reported as 27% and the “Herbicide damage with compound of the formula (I)” value was determined as 3%. In assay [2] (safener 125 g a.i./ha), the “Absolute reduction in damage (difference)” value came to 20% and the “Herbicide damage with compound … (%)” value came out at 27%. Moreover, in assay [2] (safener 500 g a.i./ha), the “Absolute reduction in damage (difference)” value is reported as 27% and the “Herbicide damage with compound … (%)” value turned out to be 20%.

With `O=C(O)COc1nc(-c2ccc(Cl)cc2F)n(-c2ccc(Cl)cc2Cl)n1` [I.48-32], in assay [1] (safener 125 g a.i./ha), the “Absolute reduction in herbicide damage (damage without safener minus damage with safener)” value is 30% and the “Herbicide damage with compound of the formula (I)” value amounted to 30%. Moreover, in assay [1] (safener 500 g a.i./ha), the “Absolute reduction in herbicide damage (damage without safener minus damage with safener)” value worked out at 37% and the “Herbicide damage with compound of the formula (I)” value was found to be 23%. Further, in assay [2] (safener 125 g a.i./ha), the “Absolute reduction in damage (difference)” value was 40% and the “Herbicide damage with compound … (%)” value came out at 20%. In addition, in assay [2] (safener 500 g a.i./ha), the “Absolute reduction in damage (difference)” value worked out at 50% and the “Herbicide damage with compound … (%)” value turned out to be 10%.

Regarding `O=C(O)COc1nc(-c2ccc(Cl)cc2F)n(-c2ccc(Cl)cc2F)n1` [I.48-49], in assay [1] (safener 125 g a.i./ha), the “Absolute reduction in herbicide damage (damage without safener minus damage with safener)” value stood at 37% and the “Herbicide damage with compound of the formula (I)” value stood at 23%. In assay [1] (safener 500 g a.i./ha), the “Absolute reduction in herbicide damage (damage without safener minus damage with safener)” value is recorded as 40% and the “Herbicide damage with compound of the formula (I)” value is recorded as 20%. Further, in assay [2] (safener 125 g a.i./ha), the “Absolute reduction in damage (difference)” value came out at 40% and the “Herbicide damage with compound … (%)” value was determined as 20%. In assay [2] (safener 500 g a.i./ha), the “Absolute reduction in damage (difference)” value is 60% and the “Herbicide damage with compound … (%)” value was 0%.

Regarding `CCOC(=O)COc1nc(-c2cc(F)cc(F)c2)n(-c2ccc(F)cc2)n1` [I.53-4], in assay [1] (safener 1000 g/ha), the “Absolute reduction in herbicide damage (damage without safener minus damage with safener)” value is given as 20% and the “Herbicide damage with compound of the formula (I)” value turned out to be 23%. In addition, in assay [2] (safener 250 g a.i./ha), the “Absolute reduction in damage (difference)” value worked out at 27% and the “Herbicide damage with compound … (%)” value was determined as 33%.
